The results in this text go back to US6849653B2, “Substituted pyrazolyl benzenesulfamide compounds for the treatment of inflammation” (Pharmacia Corporation, priority 2001, dated 2005).

Like-named read-outs stand apart in the source and are kept apart here.

Experiment [1] has as its target T1, IKK2 (IKKβ), rhIKK2 homodimer (Homo sapiens, UniProt O14920).
T1 construct: made in house; host or cells: insect cells (baculovirus; SF9)
T1 sequence (O14920 1-756): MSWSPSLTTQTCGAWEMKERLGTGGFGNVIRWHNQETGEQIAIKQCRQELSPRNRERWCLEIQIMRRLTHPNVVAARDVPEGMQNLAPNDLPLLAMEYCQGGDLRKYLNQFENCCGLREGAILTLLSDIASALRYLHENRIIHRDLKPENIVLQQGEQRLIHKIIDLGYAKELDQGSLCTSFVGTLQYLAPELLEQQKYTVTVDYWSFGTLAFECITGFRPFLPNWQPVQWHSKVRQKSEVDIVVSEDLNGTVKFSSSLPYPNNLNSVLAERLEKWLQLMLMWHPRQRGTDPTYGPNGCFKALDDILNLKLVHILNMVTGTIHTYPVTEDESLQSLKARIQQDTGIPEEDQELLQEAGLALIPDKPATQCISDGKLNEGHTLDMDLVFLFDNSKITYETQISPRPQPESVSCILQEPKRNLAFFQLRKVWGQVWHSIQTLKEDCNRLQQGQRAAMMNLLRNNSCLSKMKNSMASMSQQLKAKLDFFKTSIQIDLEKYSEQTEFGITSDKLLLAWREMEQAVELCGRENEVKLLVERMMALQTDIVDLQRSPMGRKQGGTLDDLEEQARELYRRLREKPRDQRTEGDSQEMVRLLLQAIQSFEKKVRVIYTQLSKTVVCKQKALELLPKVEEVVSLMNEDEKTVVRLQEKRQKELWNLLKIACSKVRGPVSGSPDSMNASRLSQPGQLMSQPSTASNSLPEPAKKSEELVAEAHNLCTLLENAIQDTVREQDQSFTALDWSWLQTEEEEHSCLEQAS
Kind of experiment: IKKβ (IKK2) Resin Enzyme Assay. The following applies: read-out: IKK2 Resin IC 50. Format: biochemical. From the text:
(§1) cDNAs of human IKK1 and IKK2 were amplified by reverse transcriptase-polymerase chain reaction from human placental RNA (Clonetech). hIKK1 was subcloned into pFastBac HTa (Life Technologies) and expressed as N-terminal His6-tagged fusion protein. The hIKK2 cDNA was amplified using a reverse oligonucleotide primer which incorporated the peptide sequence for a FLAG-epitope tag at the C-terminus of the IKK2 coding region (DYKDDDDKD). The hIKK2:FLAG cDNA was subcloned into the baculovirus vector pFastBac. The rhIKK2 ([…]) mutant was constructed in the same vector used for wild type rhIKK2 using a QuikChange™ mutagenesis kit (Stratagene). Viral stocks of each construct were used to infect insect cells grown in 40L suspension culture. […] Cell lysates were stored at −80° C. until purification of the recombinant proteins was undertaken as described below.
Isolation of rhIKK2 Homodimer
A 10 liter culture of baculovirus-expressing IKK2 tagged with FLAG peptide was centrifuged and the cell pellet (MOI=0.1 and I=72 hrs) was re-suspended in buffer A. These cells were microfluidized, and centrifuged at 100,000×g for 45 min. Supernatant was passed over a G-25 column equilibrated with Buffer A. Protein peak was collected and incubated with anti-FLAG affinity resin on a rotator overnight in buffer B. The resin was washed in batch with 10-15 bed volumes of buffer C. Washed resin was poured into a column and rhIKK2 homodimer was eluted using 5 bed volumes of buffer B containing FLAG peptide. 5 mM DTT, 0.1% NP-40 and BSA (concentrated to 0.1% in final amount) was added to the eluted enzyme before concentrating in using an Amicon membrane with a molecular weight cut-off of 30 kDa. Enzyme was aliquoted and stored at −80° C.
IKKβ kinase activity was measured using a biotinylated IκBα peptide (Gly-Leu-Lys-Lys-Glu-Arg-Leu-Leu-Asp-Asp-Arg-His-Asp-Ser32-Gly-Leu-Asp-Ser36-Met-Lys-Asp-Glu-Glu) (American Peptide Co.). […] contained 5 μM biotinylated IκBα peptide, 0.1 μCi/reaction [γ-^33P] ATP (Amersham) (about 1×10^5 cpm), 1 μM ATP (Sigma), 1 mM DTT (Sigma), 2 mM MgCl2 (Sigma), 2 mM MnCl2 (Sigma), 10 mM NaF (Sigma), 25 mM Hepes (Sigma) buffer, pH 7.6 and 20 μl enzyme solution and […] inhibitor in a final volume of 50 μl. After incubation at 25° C. for 30 min, 150 μl resin (Dowex anion-exchange resin AG1X8 200-400 mesh) in 900 mM formate, pH 3.0 was added to each well to stop the reaction. Resin was allowed to settle for one hour and 50 ul of supernatant was removed to a Micolite-2 flat bottom plate (Dynex). 150 μl of scintillation fluid (Microscint 40) (Packard) was added to each well. Incorporation of [γ-^33P] ATP was measured using a Top-Count NXT (Packard).

Experiment [2] addresses T2, rhIKK1/IKK2 heterodimer (Homo sapiens, UniProt O14920+O15111).
T2 construct: made in house; host or cells: insect cells (baculovirus coinfection; SF9)
T2 sequence (O14920 1-756): T1 sequence (O14920 1-756)
T2 sequence (O15111 1-745): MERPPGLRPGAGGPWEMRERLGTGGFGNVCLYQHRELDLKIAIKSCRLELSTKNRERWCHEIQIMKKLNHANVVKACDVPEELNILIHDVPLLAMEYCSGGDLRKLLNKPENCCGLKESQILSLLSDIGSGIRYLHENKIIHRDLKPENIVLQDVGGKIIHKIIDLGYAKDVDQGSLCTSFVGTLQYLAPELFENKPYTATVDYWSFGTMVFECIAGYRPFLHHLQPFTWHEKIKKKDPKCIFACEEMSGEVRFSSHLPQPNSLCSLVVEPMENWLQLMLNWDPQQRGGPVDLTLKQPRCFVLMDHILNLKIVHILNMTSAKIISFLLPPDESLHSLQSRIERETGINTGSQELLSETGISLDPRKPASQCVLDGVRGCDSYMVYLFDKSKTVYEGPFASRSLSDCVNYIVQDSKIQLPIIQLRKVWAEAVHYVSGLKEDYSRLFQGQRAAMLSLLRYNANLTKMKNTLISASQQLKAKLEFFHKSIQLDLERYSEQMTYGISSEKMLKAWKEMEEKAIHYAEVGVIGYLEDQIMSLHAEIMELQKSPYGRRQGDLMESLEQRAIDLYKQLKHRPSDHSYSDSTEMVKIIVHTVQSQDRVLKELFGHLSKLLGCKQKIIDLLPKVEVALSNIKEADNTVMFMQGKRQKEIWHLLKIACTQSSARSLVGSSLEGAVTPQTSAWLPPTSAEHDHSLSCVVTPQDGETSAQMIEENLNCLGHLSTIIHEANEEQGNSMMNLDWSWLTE
Kind of experiment: IKK Heterodimer Resin Enzyme Assay. It is filed as biochemical.
Text: as §1, with “([…]).” for “(DYKDDDDKD).”
Isolation of rhIKK1/IKK2 Heterodimer
The heterodimer enzyme was produced by coinfection in a baculovirus system (FLAG IKK2/IKK1 His; MOI=0.1 and I=72 hrs). Infected cells were centrifuged and the cell pellet (10.0 g) was suspended in 50 ml of buffer A. The protein suspension was microfluidized and centrifuged at 100,000×g for 45 min. Imidazole was added to the supernatant to a final concentration of 10 mM. The protein was allowed to bind 25 ml of Ni-NTA resin by mixing for 2 hrs. The protein-resin slurry was poured into a 25 ml column and washed with 250 ml of buffer A containing 10 mM imidazole followed by 125 ml of buffer A containing 50 mM imidazole. Buffer A, containing 300 mM imidazole, was then used to elute the protein. A 75 ml pool was collected and NP-40 was added to a final concentration of 0.1%. […] The protein-resin slurry was then centrifuged for 5 min at 2,000 rpm. The supernatant was collected and the resin re-suspended in 100 ml of buffer C containing 0.1% NP-40. The resin was washed with 375 ml of buffer C containing 0.1% NP-40. The protein-resin was poured into a 25 ml column and the enzyme eluted using buffer B containing FLAG peptide. Enzyme fractions (100 ml) were collected and concentrated to 20 ml using an Amicon membrane with molecular weight cut-off of 30 kDa. Bovine serum albumin was added to the concentrated enzyme to final concentration of 0.1%. The enzyme was then aliquoted and stored at −80° C.
IKK Heterodimer Resin Enzyme Assay
Resin was allowed to settle for one hour and 50 ul of supernatant was removed to a Micolite-2 flat bottom plate (Dynex). 150 μl of scintillation fluid (Microscint 40) (Packard) was added to each well. Incorporation of [γ-^33P] ATP was measured using a Top-Count NXT (Packard).

The mark [3] stands for this setting: Table 1, values given as bins, read-out: HetD (IKK heterodimer assay values expressed as IC50).

With `NC(=O)c1nn(-c2ccc(F)cc2F)c2c1ccc1ccc(NC(=O)c3cccnc3Cl)cc12` [Example 52, 8-{[(2-chloropyridin-3-yl)carbonyl]amino}-1-(2,4-difluorophenyl)-1H-benzo[g]indazole-3-carboxamide], the IC50 in experiment [1] (Table 3) is ≤ 1000 nM.

Consider `Cc1ccccc1C(=O)Nc1ccc2ccc3c(C(N)=O)nn(-c4ccc(S(C)(=O)=O)cc4)c3c2c1` [Example 38, 8-[(2-methylbenzoyl)amino]-1-[4-(methylsulfonyl)phenyl]-1H-benzo[g]indazole-3-carboxamide], for which the IC50 in experiment [1] (Table 2, values given as bins) was ≤ 1000 nM. For the compound `CS(=O)(=O)c1ccc(-n2nc(C(N)=O)c3ccc4ccc(NC(=O)c5ccccc5F)cc4c32)cc1` [Example 42, 8-[(2-fluorobenzoyl)amino]-1-[4-(methylsulfonyl)phenyl]-1H-benzo[g]indazole-3-carboxamide], the IC50 in experiment [1] (Table 2, values given as bins) fell in the range of 1000 to 10000 nM. For `NC(=O)c1nn(-c2ccc3c(c2)OCO3)c2c1ccc1ccc(NC(=O)c3ccncc3Cl)cc12` [Example 58, 1-(1,3-benzodioxol-5-yl)-8-[(3-chloroisonicotinoyl)amino]-1H-benzo[g]indazole-3-carboxamide], the IC50 in experiment [1] (Table 4, values given as bins) is ≤ 1000 nM. Regarding `COc1ccccc1C(=O)Nc1ccc2ccc3c(C(N)=O)nn(-c4ccc(S(N)(=O)=O)cc4)c3c2c1` [Example 25, 1-[4-(aminosulfonyl)phenyl]-8-[(2-methoxybenzoyl)amino]-1H-benzo[g]indazole-3-carboxamide], the IC50 in experiment [2] was in the range of 1000 to 10000 nM. For the compound `NC(=O)c1nn(-c2ccc(S(N)(=O)=O)cc2)c2c1ccc1ccc(NS(=O)(=O)c3ccc(Cl)c(Cl)c3)cc12` [Example 22, 1-[4-(aminosulfonyl)phenyl]-8-{[(3,4-dichlorophenyl)sulfonyl]amino}-1H-benzo[g]indazole-3-carboxamide], the IC50 in experiment [2] (setting [3]) is 1000 to 10000 nM.

For the compound `NC(=O)c1nn(-c2ccc(S(N)(=O)=O)cc2)c2c1ccc1ccc(NS(=O)(=O)c3cccc(C(F)(F)F)c3)cc12` [Example 19, 1-[4-(aminosulfonyl)phenyl]-8-({[3-(trifluoromethyl)phenyl]sulfonyl}amino)-1H-benzo[g]indazole-3-carboxamide], the IC50 in experiment [2] (setting [3]) is 10000 to 100000 nM.

As for `COc1cccc(C(=O)Nc2ccc3ccc4c(C(N)=O)nn(-c5ccc(S(N)(=O)=O)cc5)c4c3c2)c1` [Example 8, 1-[4-(aminosulfonyl)phenyl]-8-[(3-methoxybenzoyl)amino]-1H-benzo[g]indazole-3-carboxamide], the IC50 in experiment [2] (setting [3]) was ≤ 1000 nM.

As for `NC(=O)c1nn(-c2ccc(S(N)(=O)=O)cc2)c2c1ccc1ccc(NC(=O)c3cccc(Cl)c3Cl)cc12` [Example 30, 1-[4-(aminosulfonyl)phenyl]-8-[(2,3-dichlorobenzoyl)amino]-1H-benzo[g]indazole-3-carboxamide], the IC50 in experiment [2] (setting [3]) is ≤ 1000 nM. With `NC(=O)c1nn(-c2ccc(S(N)(=O)=O)cc2)c2c1ccc1ccc(NC(=O)c3ccccc3OC(F)(F)F)cc12` [Example 29], the IC50 in experiment [2] (setting [3]) is ≤ 1000 nM.

In the case of `NC(=O)c1nn(-c2ccc(S(N)(=O)=O)cc2)c2c1ccc1ccc(NS(=O)(=O)c3ccccc3Cl)cc12` [Example 33, 1-[4-(aminosulfonyl)phenyl]-8-{[(2-chlorophenyl)sufonyl]amino}-1H-benzo[g]indazole-3-carboxamide], in experiment [2] (setting [3]), the IC50 lay within 1000 to 10000 nM. On the same count and under the same terms, with `NC(=O)c1nn(-c2ccc(S(N)(=O)=O)cc2)c2c1ccc1ccc(NC(=O)c3ccncc3)cc12` [Example 34, 1-[4-(aminosulfonyl)phenyl]-8-(isonicotinoylamino)-1H-benzo[g]indazole-3-carboxamide] the figure was ≤ 1000 nM; with `Cc1ccccc1C(=O)Nc1ccc2ccc3c(C(N)=O)nn(-c4ccc(S(N)(=O)=O)cc4)c3c2c1` [Example 27, 1-[4-(aminosulfonyl)phenyl]-8-[(2-methylbenzoyl)amino]-1H-benzo[g]indazole-3-carboxamide], ≤ 1000 nM.
